Source: patent US4140785A, “N-(benzothienopyrazol)amide antirhinoviral agents” (E. I. Du Pont de Nemours and Company, priority 1978, dated 1979)
≈ marks a conversion by molar mass, not a printed value. Like-named read-outs stand apart in the source and are kept apart here.

How the values were obtained:
Rhinovirus type 39 = test: Plaque inhibition in HeLa cells, rhinovirus type 39; conditions: for Plaque counts per plate: type 39, untreated 112; for MIC: Enterovirus
Rhinovirus type 51 = test: Plaque inhibition in HeLa cells, rhinovirus type 51; conditions: for Plaque counts per plate: type 51, untreated 118; for MIC: Enterovirus
Rhinovirus type 1A = test: Plaque inhibition in HeLa cells, rhinovirus type 1A; conditions: for Plaque counts per plate: type 1A, untreated 211; for MIC: Enterovirus
Rhinovirus 1492 = test: Plaque inhibition in HeLa cells, rhinovirus 1492; conditions: for Plaque counts per plate: 1492, untreated 255; for MIC: Enterovirus
Rhinovirus type 15 = test: Plaque inhibition in HeLa cells, rhinovirus type 15; conditions: for Plaque counts per plate: type 15, untreated 145; for MIC: Enterovirus
Rhinovirus type 14 = test: Plaque inhibition in HeLa cells, rhinovirus type 14; conditions: for Plaque counts per plate: type 14, untreated 194; for MIC: Enterovirus
Rhinovirus type 3 = test: Plaque inhibition in HeLa cells, rhinovirus type 3; conditions: for Plaque counts per plate: type 3, untreated 170; for MIC: Enterovirus
Rhinovirus 998 = test: Plaque inhibition in HeLa cells, rhinovirus 998; conditions: for Plaque counts per plate: 998, untreated 190; for MIC: Enterovirus
rhinovirus = test: In vitro activity against rhinovirus strains (overall); type: cell-based; conditions: preferred compounds
[1] = test system: influenza A virus strains; conditions: prophylaxis and symptomatic treatment; cited from earlier work
Rhinovirus 1662 = test: Plaque inhibition in HeLa cells, rhinovirus 1662; conditions: Enterovirus, read-out: Minimum Inhibitory Concentration (MIC)
Rhinovirus type 1b = test: Plaque inhibition in HeLa cells, rhinovirus type 1B; conditions: Enterovirus, read-out: Minimum Inhibitory Concentration (MIC)
Rhinovirus 4005 = test: Plaque inhibition in HeLa cells, rhinovirus 4005; conditions: Enterovirus, read-out: Minimum Inhibitory Concentration (MIC)
Rhinovirus type 5 = test: Plaque inhibition in HeLa cells, rhinovirus type 5; conditions: Enterovirus, read-out: Minimum Inhibitory Concentration (MIC)
Rhinovirus type 13 = test: Plaque inhibition in HeLa cells, rhinovirus type 13; conditions: Enterovirus, read-out: Minimum Inhibitory Concentration (MIC)
Rhinovirus type 2 = test: Plaque inhibition in HeLa cells, rhinovirus type 2; conditions: Enterovirus, read-out: Minimum Inhibitory Concentration (MIC)
Rhinovirus type 41 = test: Plaque inhibition in HeLa cells, rhinovirus type 41; conditions: Enterovirus, read-out: Minimum Inhibitory Concentration (MIC)
Rhinovirus 6579 = test: Plaque inhibition in HeLa cells, rhinovirus 6579; conditions: Enterovirus, read-out: Minimum Inhibitory Concentration (MIC)
Rhinovirus 1425 = test: Plaque inhibition in HeLa cells, rhinovirus 1425; conditions: Enterovirus, read-out: Minimum Inhibitory Concentration (MIC)
herpes simplex keratitis = conditions: topical treatment; cited from earlier work
smallpox = conditions: cited from earlier work
[2] = read-out: Minimum Inhibitory Concentration (MIC)

## CCC(CC)(CC)C(=O)Nc1nn(C)c2c1sc1ccccc12
Rhinovirus type 39; 0.1 μg/ml
  Plaque counts per plate: 65 Plaque counts per plate
Rhinovirus type 39; 0.5 μg/ml
  Plaque counts per plate: 4 Plaque counts per plate
Rhinovirus type 39; 1.0 μg/ml
  Plaque counts per plate: 0 Plaque counts per plate
Rhinovirus type 39; 2.0 μg/ml
  Plaque counts per plate: 0 Plaque counts per plate
Rhinovirus type 39
  MIC: 1 µg/mL (≈ 3.04 µM)
Rhinovirus type 51; 0.1 μg/ml
  Plaque counts per plate: 211 Plaque counts per plate
Rhinovirus type 51; 0.5 μg/ml
  Plaque counts per plate: 28 Plaque counts per plate
Rhinovirus type 51; 1.0 μg/ml
  Plaque counts per plate: 0 Plaque counts per plate
Rhinovirus type 51; 2.0 μg/ml
  Plaque counts per plate: 0 Plaque counts per plate
Rhinovirus type 51
  MIC: 1 µg/mL (≈ 3.04 µM)
Rhinovirus type 1A; 0.1 μg/ml
  Plaque counts per plate: 153 Plaque counts per plate
Rhinovirus type 1A; 0.5 μg/ml
  Plaque counts per plate: 60 Plaque counts per plate
Rhinovirus type 1A; 1.0 μg/ml
  Plaque counts per plate: 4 Plaque counts per plate
Rhinovirus type 1A; 2.0 μg/ml
  Plaque counts per plate: 0 Plaque counts per plate
Rhinovirus type 1A
  MIC: 2 µg/mL (≈ 6.07 µM)
Rhinovirus 1492; 0.1 μg/ml
  Plaque counts per plate: 140 Plaque counts per plate
Rhinovirus 1492; 0.5 μg/ml
  Plaque counts per plate: 12 Plaque counts per plate
Rhinovirus 1492; 1.0 μg/ml
  Plaque counts per plate: 0 Plaque counts per plate
Rhinovirus 1492; 2.0 μg/ml
  Plaque counts per plate: 0 Plaque counts per plate
Rhinovirus 1492
  MIC: 1 µg/mL (≈ 3.04 µM)
Rhinovirus type 15; 0.1 μg/ml
  Plaque counts per plate: 61 Plaque counts per plate
Rhinovirus type 15; 0.5 μg/ml
  Plaque counts per plate: 0 Plaque counts per plate
Rhinovirus type 15; 1.0 μg/ml
  Plaque counts per plate: 0 Plaque counts per plate
Rhinovirus type 15; 2.0 μg/ml
  Plaque counts per plate: 0 Plaque counts per plate
Rhinovirus type 15
  MIC: 0.5 µg/mL (≈ 1.52 µM)
Rhinovirus type 14; 0.1 μg/ml
  Plaque counts per plate: 125 Plaque counts per plate
Rhinovirus type 14; 0.5 μg/ml
  Plaque counts per plate: 20 Plaque counts per plate
Rhinovirus type 14; 1.0 μg/ml
  Plaque counts per plate: 0 Plaque counts per plate
Rhinovirus type 14; 2.0 μg/ml
  Plaque counts per plate: 0 Plaque counts per plate
Rhinovirus type 14
  MIC: 1 µg/mL (≈ 3.04 µM)
Rhinovirus type 3; 0.1 μg/ml
  Plaque counts per plate: 119 Plaque counts per plate
Rhinovirus type 3; 0.5 μg/ml
  Plaque counts per plate: 0 Plaque counts per plate
Rhinovirus type 3; 1.0 μg/ml
  Plaque counts per plate: 0 Plaque counts per plate
Rhinovirus type 3; 2.0 μg/ml
  Plaque counts per plate: 0 Plaque counts per plate
Rhinovirus type 3
  MIC: 0.5 µg/mL (≈ 1.52 µM)
Rhinovirus 998; 0.1 μg/ml
  Plaque counts per plate: 103 Plaque counts per plate
Rhinovirus 998; 0.5 μg/ml
  Plaque counts per plate: 0 Plaque counts per plate
Rhinovirus 998; 1.0 μg/ml
  Plaque counts per plate: 0 Plaque counts per plate
Rhinovirus 998; 2.0 μg/ml
  Plaque counts per plate: 0 Plaque counts per plate
Rhinovirus 998
  MIC: 0.5 µg/mL (≈ 1.52 µM)
rhinovirus
  Level of antirhinovirus activity: high level of antirhinovirus activity

## Cl.NC12CC3CC(CC(C3)C1)C2 [1-aminoadamantane hydrochloride]
[1]
  Effectiveness against illness caused by influenza A virus: effective for the prophylaxis and symptomatic treatment of illness caused by influenza A virus strains

## Cn1nc(NC(=O)C(C)(C)C)c2sc3ccccc3c21 [2,2-dimethyl-N-(1-methyl-1H-(1)benzothieno[3,2-c]pyrazol-3-yl)propanamide]
rhinovirus
  Level of antirhinovirus activity: high level of antirhinovirus activity

## Cn1nc(NC(=O)CC2CCCC2)c2sc3ccccc3c21 [Example 62]
Rhinovirus type 39; [2]
  MIC: 2 µg/mL (≈ 6.38 µM)
Rhinovirus type 51; [2]
  MIC: 8 µg/mL (≈ 25.5 µM)
Rhinovirus 1662
  MIC: 8 µg/mL (≈ 25.5 µM)
Rhinovirus type 1b
  MIC: 2 µg/mL (≈ 6.38 µM)
Rhinovirus type 1A; [2]
  MIC: 6 µg/mL (≈ 19.1 µM)
Rhinovirus 1492; [2]
  MIC: 2 µg/mL (≈ 6.38 µM)
Rhinovirus type 15; [2]
  MIC: 5 µg/mL (≈ 16 µM)
Rhinovirus 4005
  MIC: 2 µg/mL (≈ 6.38 µM)
Rhinovirus type 5
  MIC: 2 µg/mL (≈ 6.38 µM)
Rhinovirus type 14; [2]
  MIC: 6 µg/mL (≈ 19.1 µM)
Rhinovirus type 13
  MIC: 2 µg/mL (≈ 6.38 µM)
Rhinovirus type 3; [2]
  MIC: 4 µg/mL (≈ 12.8 µM)
Rhinovirus type 2
  MIC: 2 µg/mL (≈ 6.38 µM)
Rhinovirus type 41
  MIC: 2 µg/mL (≈ 6.38 µM)
Rhinovirus 998; [2]
  MIC: 2 µg/mL (≈ 6.38 µM)
Rhinovirus 6579
  MIC: 2 µg/mL (≈ 6.38 µM)
Rhinovirus 1425
  MIC: 2 µg/mL (≈ 6.38 µM)

## CCC(CC)C(=O)Nc1nn(C)c2c1sc1ccccc12 [Example 63, 2-ethyl-N-(1-methyl-1H-(1)benzothieno[3,2-c]pyrazol-3-yl)butanamide]
Rhinovirus type 39; [2]
  MIC: 0.5 µg/mL (≈ 1.66 µM)
Rhinovirus type 51; [2]
  MIC: 1 µg/mL (≈ 3.32 µM)
Rhinovirus 1662
  MIC: 1 µg/mL (≈ 3.32 µM)
Rhinovirus type 1b
  MIC: 2 µg/mL (≈ 6.64 µM)
Rhinovirus type 1A; [2]
  MIC: 1 µg/mL (≈ 3.32 µM)
Rhinovirus 1492; [2]
  MIC: 1 µg/mL (≈ 3.32 µM)
Rhinovirus type 15; [2]
  MIC: 0.5 µg/mL (≈ 1.66 µM)
Rhinovirus 4005
  MIC: 2 µg/mL (≈ 6.64 µM)
Rhinovirus type 5
  MIC: 2 µg/mL (≈ 6.64 µM)
Rhinovirus type 14; [2]
  MIC: 1 µg/mL (≈ 3.32 µM)
Rhinovirus type 13
  MIC: 2 µg/mL (≈ 6.64 µM)
Rhinovirus type 3; [2]
  MIC: 0.5 µg/mL (≈ 1.66 µM)
Rhinovirus type 2
  MIC: 2 µg/mL (≈ 6.64 µM)
Rhinovirus type 41
  MIC: 2 µg/mL (≈ 6.64 µM)
Rhinovirus 998; [2]
  MIC: 1 µg/mL (≈ 3.32 µM)
rhinovirus
  Level of antirhinovirus activity: high level of antirhinovirus activity
Rhinovirus 6579
  MIC: 2 µg/mL (≈ 6.64 µM)
Rhinovirus 1425
  MIC: 2 µg/mL (≈ 6.64 µM)

## CC(C)CC(=O)Nc1nn(C)c2c1sc1ccccc12 [Example 64]
Rhinovirus type 39; [2]
  MIC: 1 µg/mL (≈ 3.48 µM)
Rhinovirus type 51; [2]
  MIC: 2 µg/mL (≈ 6.96 µM)
Rhinovirus 1662
  MIC: 2 µg/mL (≈ 6.96 µM)
Rhinovirus type 1b
  MIC: 2 µg/mL (≈ 6.96 µM)
Rhinovirus type 1A; [2]
  MIC: 1 µg/mL (≈ 3.48 µM)
Rhinovirus 1492; [2]
  MIC: 2 µg/mL (≈ 6.96 µM)
Rhinovirus type 15; [2]
  MIC: 1 µg/mL (≈ 3.48 µM)
Rhinovirus 4005
  MIC: 2 µg/mL (≈ 6.96 µM)
Rhinovirus type 5
  MIC: 2 µg/mL (≈ 6.96 µM)
Rhinovirus type 14; [2]
  MIC: 1 µg/mL (≈ 3.48 µM)
Rhinovirus type 13
  MIC: 2 µg/mL (≈ 6.96 µM)
Rhinovirus type 3; [2]
  MIC: 1 µg/mL (≈ 3.48 µM)
Rhinovirus type 2
  MIC: 2 µg/mL (≈ 6.96 µM)
Rhinovirus type 41
  MIC: 2 µg/mL (≈ 6.96 µM)
Rhinovirus 998; [2]
  MIC: 1 µg/mL (≈ 3.48 µM)
Rhinovirus 6579
  MIC: 2 µg/mL (≈ 6.96 µM)
Rhinovirus 1425
  MIC: 4 µg/mL (≈ 13.9 µM)

## CC(=O)Nc1nn(C)c2c1sc1ccccc12 [Example 65, N-(1-methyl-1H-(1)benzothieno[3,2-c]pyrazol-3-yl)-acetamide]
Rhinovirus type 39; [2]
  MIC: 8 µg/mL (≈ 32.6 µM)
Rhinovirus type 51; [2]
  MIC: 8 µg/mL (≈ 32.6 µM)
Rhinovirus 1662
  MIC: 10 µg/mL (≈ 40.8 µM)
Rhinovirus type 1b
  MIC: 6 µg/mL (≈ 24.5 µM)
Rhinovirus type 1A; [2]
  MIC: 8 µg/mL (≈ 32.6 µM)
Rhinovirus 1492; [2]
  MIC: 8 µg/mL (≈ 32.6 µM)
Rhinovirus type 15; [2]
  MIC: 5 µg/mL (≈ 20.4 µM)
Rhinovirus 4005
  MIC: 2 µg/mL (≈ 8.15 µM)
Rhinovirus type 5
  MIC: 4 µg/mL (≈ 16.3 µM)
Rhinovirus type 14; [2]
  MIC: 8 µg/mL (≈ 32.6 µM)
Rhinovirus type 13
  MIC: 5 µg/mL (≈ 20.4 µM)
Rhinovirus type 3; [2]
  MIC: 4 µg/mL (≈ 16.3 µM)
Rhinovirus type 2
  MIC: 4 µg/mL (≈ 16.3 µM)
Rhinovirus type 41
  MIC: 2 µg/mL (≈ 8.15 µM)
Rhinovirus 998; [2]
  MIC: 8 µg/mL (≈ 32.6 µM)
Rhinovirus 6579
  MIC: 5 µg/mL (≈ 20.4 µM)
Rhinovirus 1425
  MIC: 2 µg/mL (≈ 8.15 µM)

## Cn1nc(NC(=O)c2cccnc2)c2sc3ccccc3c21 [Example 66]
Rhinovirus type 39; [2]
  MIC: 2 µg/mL (≈ 6.49 µM)
Rhinovirus type 51; [2]
  MIC: 6 µg/mL (≈ 19.5 µM)
Rhinovirus 1662
  MIC: 8 µg/mL (≈ 25.9 µM)
Rhinovirus type 1b
  MIC: 2 µg/mL (≈ 6.49 µM)
Rhinovirus type 1A; [2]
  MIC: 5 µg/mL (≈ 16.2 µM)
Rhinovirus 1492; [2]
  MIC: 6 µg/mL (≈ 19.5 µM)
Rhinovirus type 15; [2]
  MIC: 4 µg/mL (≈ 13 µM)
Rhinovirus 4005
  MIC: 2 µg/mL (≈ 6.49 µM)
Rhinovirus type 5
  MIC: 2 µg/mL (≈ 6.49 µM)
Rhinovirus type 14; [2]
  MIC: 8 µg/mL (≈ 25.9 µM)
Rhinovirus type 13
  MIC: 2 µg/mL (≈ 6.49 µM)
Rhinovirus type 3; [2]
  MIC: 6 µg/mL (≈ 19.5 µM)
Rhinovirus type 2
  MIC: 2 µg/mL (≈ 6.49 µM)
Rhinovirus type 41
  MIC: 2 µg/mL (≈ 6.49 µM)
Rhinovirus 998; [2]
  MIC: 2 µg/mL (≈ 6.49 µM)
Rhinovirus 6579
  MIC: 2 µg/mL (≈ 6.49 µM)
Rhinovirus 1425
  MIC: 2 µg/mL (≈ 6.49 µM)

## O=c1[nH]c(=O)n([C@H]2C[C@H](O)[C@@H](CO)O2)cc1I [Idoxuridine]
Herpes simplex keratitis
  Effectiveness in herpes simplex keratitis: effective for the topical treatment of herpes simplex keratitis

## CN1C(=O)/C(=N\NC(N)=S)c2ccccc21 [Methisazone]
smallpox
  Effectiveness for prevention of smallpox: effective for the prevention of smallpox

## Nc1ncnc2c1ncn2[C@@H]1O[C@H](CO)[C@@H](O)[C@@H]1O [adenine arabinoside]
Herpes simplex keratitis
  Effectiveness in herpes simplex keratitis: effective for the topical treatment of herpes simplex keratitis
